Numbers after ± are expanded uncertainties.
Tests used:
[1] = Liquid; for mass density: 298.15 K, 101.33 kPa, Vibrating tube method; for vapor or sublimation pressure: Ebulliometric method (Recirculating still)
[2] = Boiling temperature at pressure P; conditions: Liquid, Ebulliometric method (Recirculating still)

CCOC(=O)C(C)O (racemic) [DL-ethyl lactate]
mass density [1]: 1028.08 ± 0.1 kg/m3
vapor or sublimation pressure ([1]; 396.91 K): 40 ± 0.28 kPa
vapor or sublimation pressure ([1]; 405.49 K): 53.33 ± 0.43 kPa
vapor or sublimation pressure ([1]; 412.44 K): 66.66 ± 0.5 kPa
vapor or sublimation pressure ([1]; 418.34 K): 79.99 ± 0.6 kPa
vapor or sublimation pressure ([1]; 423.47 K): 93.32 ± 0.7 kPa
vapor or sublimation pressure ([1]; 426.1 K): 101.3 ± 0.76 kPa
Boiling temperature at pressure P ([2]; 40 kPa): 123.76 ± 0.08 °C
Boiling temperature at pressure P ([2]; 53.33 kPa): 132.34 ± 0.08 °C
Boiling temperature at pressure P ([2]; 66.66 kPa): 139.29 ± 0.07 °C
Boiling temperature at pressure P ([2]; 79.99 kPa): 145.19 ± 0.07 °C
Boiling temperature at pressure P ([2]; 93.32 kPa): 150.32 ± 0.07 °C
Boiling temperature at pressure P ([2]; 101.3 kPa): 153.0 ± 0.07 °C

CO [methanol]
mass density [1]: 786.56 ± 0.12 kg/m3
vapor or sublimation pressure ([1]; 315.49 K): 40 ± 0.22 kPa
vapor or sublimation pressure ([1]; 321.98 K): 53.33 ± 0.32 kPa
vapor or sublimation pressure ([1]; 327.23 K): 66.66 ± 0.4 kPa
vapor or sublimation pressure ([1]; 331.66 K): 79.99 ± 0.48 kPa
vapor or sublimation pressure ([1]; 335.51 K): 93.32 ± 0.56 kPa
vapor or sublimation pressure ([1]; 337.6 K): 101.3 ± 0.61 kPa
Boiling temperature at pressure P ([2]; 40 kPa): 42.34 ± 0.07 °C
Boiling temperature at pressure P ([2]; 53.33 kPa): 48.83 ± 0.07 °C
Boiling temperature at pressure P ([2]; 66.66 kPa): 54.08 ± 0.07 °C
Boiling temperature at pressure P ([2]; 79.99 kPa): 58.51 ± 0.07 °C
Boiling temperature at pressure P ([2]; 93.32 kPa): 62.36 ± 0.06 °C
Boiling temperature at pressure P ([2]; 101.3 kPa): 64.5 ± 0.06 °C

COC(C)=O [methyl ethanoate]
mass density [1]: 927.1 ± 0.07 kg/m3
vapor or sublimation pressure ([1]; 305.65 K): 40 ± 0.24 kPa
vapor or sublimation pressure ([1]; 312.68 K): 53.33 ± 0.35 kPa
vapor or sublimation pressure ([1]; 318.45 K): 66.66 ± 0.43 kPa
vapor or sublimation pressure ([1]; 323.36 K): 79.99 ± 0.52 kPa
vapor or sublimation pressure ([1]; 327.68 K): 93.32 ± 0.61 kPa
vapor or sublimation pressure ([1]; 330.04 K): 101.3 ± 0.66 kPa
Boiling temperature at pressure P ([2]; 40 kPa): 32.50 ± 0.08 °C
Boiling temperature at pressure P ([2]; 53.33 kPa): 39.53 ± 0.07 °C
Boiling temperature at pressure P ([2]; 66.66 kPa): 45.30 ± 0.07 °C
Boiling temperature at pressure P ([2]; 79.99 kPa): 50.21 ± 0.07 °C
Boiling temperature at pressure P ([2]; 93.32 kPa): 54.53 ± 0.07 °C
Boiling temperature at pressure P ([2]; 101.3 kPa): 56.89 ± 0.07 °C

— the NIST ThermoML archive (doi:10.1016/j.fluid.2015.12.029)
